According to patent US10071164B2, “Estrogen-related receptor alpha based protac compounds and associated methods of use” (Yale University, priority 2014, dated 2018):

Tests used:
[1] = molecular target: estrogen related receptor alpha (ERRα) (Homo sapiens, UniProt P11474); conditions: FIG. 5
Excerpt: [drawing 18] on the degradation of estrogen related receptor alpha (ERRα).

ERRα = molecular target: T1, ERRα (Homo sapiens, UniProt P11474); experiment: ERRα degradation in ST-486 cells; format: cell-based; design: degration of ERRα in either MCF-7 cells or ST-486 cells; endogenous in cells; host or cells: ST-486; conditions: ST486, column C, read-out: ERRα Degradation Dmax (Estimated) ST-486 cells
T1 sequence (P11474 1-423): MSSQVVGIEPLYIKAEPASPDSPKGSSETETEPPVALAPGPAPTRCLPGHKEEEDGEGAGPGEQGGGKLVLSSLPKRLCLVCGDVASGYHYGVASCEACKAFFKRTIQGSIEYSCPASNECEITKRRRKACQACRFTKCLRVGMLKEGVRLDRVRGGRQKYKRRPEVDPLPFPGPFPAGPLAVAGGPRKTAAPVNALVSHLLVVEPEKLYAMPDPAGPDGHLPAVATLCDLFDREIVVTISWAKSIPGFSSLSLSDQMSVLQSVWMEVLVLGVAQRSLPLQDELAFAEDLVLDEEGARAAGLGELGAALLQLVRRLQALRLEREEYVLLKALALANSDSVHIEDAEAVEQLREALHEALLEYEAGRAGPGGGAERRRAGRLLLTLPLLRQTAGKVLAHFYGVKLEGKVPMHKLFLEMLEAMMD
Protocol: Using the methods as described herein, the following exemplary PROTAC compounds were prepared (see Table below). The exemplary compounds were also assayed for their ability to effectuate the degration of ERRα in either MCF-7 cells or ST-486 cells. Thus, in certain embodiments, the description provides the compounds below, including compositions comprising effective amount of a compound as listed below or a derivative, analog, or a prodrug of the same, in combination with at least one of a pharmaceutically acceptable carrier, another active agent, including a second PROTAC molecule as described herein or a combination thereof. In additional embodiments, the disclosure provides a method of treating a disease or condition in a subject in need thereof, comprising administering a composition comprising an effective amount of a compound listed below, wherein the composition is effective for treating or ameliorating a symptom of the disease or condition.
Legend for following table: A=ERRα Degradation Dmax (Estimated) MCF-7 cells; B=ERRα Degradation DC50 (Estimated) MCF-7 cells; C=ERRα Degradation Dmax (Estimated) ST-486 cells; D=ERRα Degradation DC50 (Estimated) ST-486 cells

VHL = VHL (Homo sapiens, UniProt P40337); experiment: VHL binding (stereocenter inversion); conditions: inversion of stereocenter(s) of the VHL ligand
RIPK2 = RIPK2 (Homo sapiens, UniProt O43353); experiment: In vitro RIPK2 ubiquitination, reconstituted ubiquitination cascade; format: biochemical; conditions: quenched 15 min after initiation, PAGE and autoradiography
Protocol: Ubiquitination reactions were performed in three stages. In the first stage, RIPK2 (final 500 nM) was incubated for 10 min at room temperature with [^32P]g-ATP in kinase buffer (25 mM Tris pH 7.5, 50 mM KCl, 2 mM Mg(CH3CO2)2, 2 mM MnCl2, 2 mM DTT) to radiolabel RIPK2 through auto-phosphorylation. In the second stage, ubiquitination buffer (25 mM Tris pH 7.5, 5 mM MgCl2, 100 mM NaCl, 2 mM ATP, 0.1 mg/ml BSA, and 2 mM DTT) was added to complete auto-phosphorylation, and then VHL (final 250 nM) and indicated PROTACs (various concentrations) were added to the mixture to allow ternary complex formation. In parallel, UbE1 (final 25 nM), Ubc4 (final 250 nM), and ubiquitin (final 116 μM) were mixed in ubiquitination buffer to allow charging of the E2 enzyme with activated ubiquitin. In stage three of the reaction, the RIPK2-PROTAC-VHL and UbE1-Ubc4˜Ub mixtures were combined, and incubated at room temperature for various times before being quenched with Sample Buffer containing 5% b-mercaptoethanol. Ubiquitinated RIPK2 was then separated by 4-15% SDS-PAGE and imaged using a PhosphoImager Screen overnight.
RIPK2 was labeled by autophosphorylation and then incubated with the indicated concentrations of PROTAC and the reconstituted ubiquitination cascade. Samples were quenched 15 min after initiation of the reaction, and imaged by PAGE and autoradiography. RIPK2-Ubn is indicated.

THP-1 cells = experiment: Trypan Blue cell viability assay; format: cell-based; conditions: 16 hours
Protocol: FIG. 13 is a cell viability graph illustrating that PROTAC_RIPK2 is not toxic to cells. THP-1 cells were treated with the indicated concentration sof PROTAC_RIPK2 or PROTAC_RIPK2_epi for 16 hours, followed by a Trypan Blue assay to determine cell viability. Error bars represent mean and S.D.

Sequence of VHL (P40337 whole entry, species assumed): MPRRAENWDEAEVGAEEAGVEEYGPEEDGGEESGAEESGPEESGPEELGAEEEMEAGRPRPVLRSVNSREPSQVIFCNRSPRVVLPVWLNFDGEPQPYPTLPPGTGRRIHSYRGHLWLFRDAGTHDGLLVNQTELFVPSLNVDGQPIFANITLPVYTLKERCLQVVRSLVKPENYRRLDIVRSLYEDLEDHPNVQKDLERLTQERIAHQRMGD
Sequence of VHL (Q15370 whole entry partner, species assumed): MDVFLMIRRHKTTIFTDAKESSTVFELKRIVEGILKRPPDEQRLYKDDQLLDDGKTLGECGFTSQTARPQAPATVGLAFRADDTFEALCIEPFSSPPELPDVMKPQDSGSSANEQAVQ
Sequence of VHL (Q15369 whole entry partner, species assumed): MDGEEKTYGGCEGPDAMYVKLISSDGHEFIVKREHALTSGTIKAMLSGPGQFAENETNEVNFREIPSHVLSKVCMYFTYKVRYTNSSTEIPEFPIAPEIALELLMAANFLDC
Sequence of RIPK2 (O43353 whole entry, species assumed): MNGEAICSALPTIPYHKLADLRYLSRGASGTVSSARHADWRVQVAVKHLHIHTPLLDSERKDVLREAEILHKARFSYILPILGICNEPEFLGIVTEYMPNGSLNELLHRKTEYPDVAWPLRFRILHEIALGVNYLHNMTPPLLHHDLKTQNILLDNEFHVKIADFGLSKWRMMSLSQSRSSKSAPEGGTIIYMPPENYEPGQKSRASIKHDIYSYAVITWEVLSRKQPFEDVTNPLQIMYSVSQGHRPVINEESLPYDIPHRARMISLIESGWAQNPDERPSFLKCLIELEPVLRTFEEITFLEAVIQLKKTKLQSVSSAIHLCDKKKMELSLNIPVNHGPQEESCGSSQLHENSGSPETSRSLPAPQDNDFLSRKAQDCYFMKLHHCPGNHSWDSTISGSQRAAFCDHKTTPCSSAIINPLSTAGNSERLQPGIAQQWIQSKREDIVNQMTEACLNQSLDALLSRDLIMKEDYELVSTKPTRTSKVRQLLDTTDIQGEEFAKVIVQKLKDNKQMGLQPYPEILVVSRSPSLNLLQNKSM
Sequence of RIPK2 (P40337 whole entry, species assumed, further chain): as the sequence (P40337 whole entry, species assumed) above
Sequence of RIPK2 (Q15370 whole entry partner, species assumed): as the sequence (Q15370 whole entry partner, species assumed) above
Sequence of RIPK2 (Q15369 whole entry partner, species assumed): as the sequence (Q15369 whole entry partner, species assumed) above
Sequence of RIPK2 (Q13617 whole entry partner, species assumed): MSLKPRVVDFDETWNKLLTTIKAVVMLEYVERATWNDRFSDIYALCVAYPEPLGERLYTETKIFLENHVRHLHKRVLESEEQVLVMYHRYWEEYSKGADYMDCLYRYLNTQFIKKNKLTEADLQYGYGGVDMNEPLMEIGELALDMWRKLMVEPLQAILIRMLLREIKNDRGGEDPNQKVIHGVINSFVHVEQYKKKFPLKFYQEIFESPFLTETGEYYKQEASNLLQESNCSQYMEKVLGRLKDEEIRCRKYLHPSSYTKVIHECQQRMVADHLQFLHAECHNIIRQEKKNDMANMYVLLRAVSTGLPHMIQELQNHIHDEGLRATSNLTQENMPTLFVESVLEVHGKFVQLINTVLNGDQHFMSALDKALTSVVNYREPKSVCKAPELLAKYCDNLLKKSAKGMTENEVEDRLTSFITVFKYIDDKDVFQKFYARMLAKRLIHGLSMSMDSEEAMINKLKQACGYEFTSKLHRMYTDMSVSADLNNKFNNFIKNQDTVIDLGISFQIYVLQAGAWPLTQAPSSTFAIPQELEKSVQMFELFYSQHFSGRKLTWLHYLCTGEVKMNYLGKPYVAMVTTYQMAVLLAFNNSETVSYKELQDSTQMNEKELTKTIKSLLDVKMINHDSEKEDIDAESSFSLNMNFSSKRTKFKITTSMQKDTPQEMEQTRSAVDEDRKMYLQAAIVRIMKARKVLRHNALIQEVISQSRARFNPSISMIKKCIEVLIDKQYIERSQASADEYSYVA
Sequence of RIPK2 (P62877 whole entry partner, species assumed): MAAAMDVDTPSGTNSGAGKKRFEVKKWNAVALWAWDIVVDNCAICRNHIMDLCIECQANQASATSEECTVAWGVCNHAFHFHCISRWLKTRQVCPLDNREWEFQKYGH

COc1cc(/C=C2\SC(=O)NC2=O)ccc1Oc1ccc(C#N)cc1C(F)(F)F
effect on the degradation of estrogen related receptor alpha (ERRα) [1]: lack of effect

COc1cc(/C=C2\SC(=O)N(CCOCCC(=O)N[C@H](C(=O)N3C[C@H](O)C[C@H]3C(=O)NCc3ccc(-c4scnc4C)cc3)C(C)(C)C)C2=O)ccc1Oc1ccccc1C(F)(F)F [ARV N000414]
Dmax (ERRα): 98%

COc1cc(/C=C2\SC(=O)N(CCOCCC(=O)N[C@H](C(=O)N3C[C@@H](O)C[C@H]3C(=O)NCc3ccc(-c4scnc4C)cc3)C(C)(C)C)C2=O)ccc1Oc1ccc(C#N)cc1C(F)(F)F [PROTAC_ERRα_epi]
VHL binding (VHL): abolishes VHL binding

Cc1ncsc1-c1ccc(CNC(=O)[C@@H]2C[C@@H](O)CN2C(=O)[C@@H](NC(=O)COCCOCCOCCOCCOc2cc3nccc(Nc4ccc5scnc5c4)c3cc2S(=O)(=O)C(C)(C)C)C(C)(C)C)cc1 [PROTAC_RIPK2]
direct RIPK2 ubiquitination in vitro (RIPK2): mediates direct RIPK2 ubiquitination | cell viability (toxicity to cells) (THP-1 cells): not toxic
